# In US8273774B2, “Phenoxypyridinylamide compounds” (AstraZeneca AB, priority 2008, dated 2012):
# Target: recombinant Human Phosphodiesterase B2 (PDE4B2) (Homo sapiens, UniProt Q07343)
# Experiment: Human Phosphodiesterase B2 Radiometric Assay
# Assay type: biochemical
# Settings: 0.1 μg/mL recombinant PDE4B2; preincubated at 30 C for 30 min; [3H]cyclic AMP 8 nM, stopped after 20 min; yttrium silicate SPA beads; read-out: PDE4B2 pIC50 (converted)
# Experimental: Human Phosphodiesterase B2 Radiometric Assay
# The assay uses recombinant Human Phosphodiesterase B2 (PDE4B2) produced in house (PrAZL0163), stored at −20° C. This assay is based on the observation that 5′AMP, the product of the reaction catalysed by PDE4, binds preferentially to yttrium silicate SPA beads (Amersham Biosciences, UK) compared to the substrate, cAMP. Compounds at the appropriate concentration were preincubated at 30 C for 30 min with an assay buffer containing 50 mM HEPES (pH 7.5), 8.3 mM MgCl2, 1.7 mM EGTA, 0.01% (w/v) Brij®35 and 0.1 μg/mL recombinant PDE4B2. The reaction was started by the addition of [3H]cyclic AMP to give a final concentration of 8 nM, and was stopped 20 min after the addition of the substrate by the addition of yttrium silicate SPA beads containing 18 mM Zn SO4. Bound […] was measured using a Topcount NXT (Packard Bioscience, UK). pIC50 values (presented in Table 2) were determined using Xlfit3 curve fitting, using model 205.
# Sequence of recombinant Human Phosphodiesterase B2 (PDE4B2) (Q07343 1-564 isoform Q07343-2): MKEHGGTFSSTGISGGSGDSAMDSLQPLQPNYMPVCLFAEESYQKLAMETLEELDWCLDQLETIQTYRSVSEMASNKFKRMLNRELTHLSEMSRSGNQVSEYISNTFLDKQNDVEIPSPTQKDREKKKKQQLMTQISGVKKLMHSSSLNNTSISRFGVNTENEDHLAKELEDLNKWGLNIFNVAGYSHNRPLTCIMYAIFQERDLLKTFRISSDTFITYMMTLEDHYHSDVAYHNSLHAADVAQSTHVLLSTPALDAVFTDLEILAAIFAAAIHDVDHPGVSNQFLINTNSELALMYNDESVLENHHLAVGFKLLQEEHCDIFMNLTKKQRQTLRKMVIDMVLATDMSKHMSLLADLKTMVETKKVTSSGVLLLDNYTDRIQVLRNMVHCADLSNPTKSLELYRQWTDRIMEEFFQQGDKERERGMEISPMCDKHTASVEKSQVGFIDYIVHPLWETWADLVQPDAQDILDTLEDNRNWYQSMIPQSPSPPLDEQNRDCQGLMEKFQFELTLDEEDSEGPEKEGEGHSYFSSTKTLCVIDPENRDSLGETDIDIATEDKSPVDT
row,IC50,SMILES
1,0.126 nM,"Cc1cccc2nc(C(=O)N[C@H]3CC[C@@H](NC(=O)c4cc(F)cnc4Oc4cccc(-c5ccc(CN6CCCOCC6)cc5)c4)CC3)cn12 [Example 46, N-((1s,4s)-4-(2-(4′-((1,4-oxazepan-4-yl)methyl)biphenyl-3-yloxy)-5-fluoronicotinamido)cyclohexyl)-5-methylimidazo[1,2-a]pyridine-2-carboxamide]"
2,0.0316 nM,"Cc1nc(C(=O)N[C@H]2CC[C@@H](NC(=O)c3cc(F)cnc3Oc3cccc(-c4ccc(CCCN5C[C@@H](C)N[C@@H](C)C5)cc4)c3)CC2)cs1 [Example 75, N-((1s,4s)-4-(2-(4′-(3-((3S,5R)-3,5-dimethylpiperazin-1-yl)propyl)biphenyl-3-yloxy)-5-fluoronicotinamido)cyclohexyl)-2-methylthiazole-4-carboxamide]"
3,0.02 nM,"Cc1csc(C(=O)N[C@H]2CC[C@@H](NC(=O)c3cc(F)cnc3Oc3cccc(-c4ccc(CN5C[C@@H](C)N[C@@H](C)C5)cc4CN4CCSCC4)c3)CC2)n1 [Example 192, N-((1s,4s)-4-(2-(4′-(((3S,5R)-3,5-dimethylpiperazin-1-yl)methyl)-2′-(thiomorpholinomethyl)biphenyl-3-yloxy)-5-fluoronicotinamido)cyclohexyl)-4-methylthiazole-2-carboxamide]"
4,0.0398 nM,"Cc1cc(C(=O)N[C@H]2CC[C@@H](NC(=O)c3cc(F)cnc3Oc3cccc(-c4ccc(CCN5CCCN(C)CC5)cc4)c3)CC2)nn1C [Example 166, N-((1s,4s)-4-(1,5-Dimethyl-1H-pyrazole-3-carboxamido)cyclohexyl)-5-fluoro-2-(4′-(2-(4-methyl-1,4-diazepan-1-yl)ethyl)biphenyl-3-yloxy)nicotinamide]"
5,0.126 nM,"C[C@@H]1CN(Cc2cc(-c3cccc(Oc4ncc(F)cc4C(=O)N[C@H]4CC[C@@H](NC(=O)c5cc(C(F)(F)F)n(C)n5)CC4)c3)ccc2O)C[C@H](C)N1 [Example 92, 2-(3′-(((3S,5R)-3,5-dimethylpiperazin-1-yl)methyl)-4′-hydroxybiphenyl-3-yloxy)-5-fluoro-N-((1s,4s)-4-(1-methyl-5-(trifluoromethyl)-1H-pyrazole-3-carboxamido)cyclohexyl)nicotinamide]"
6,0.0501 nM,"CN(C)Cc1cc(O)ccc1-c1cccc(Oc2ncc(F)cc2C(=O)N[C@H]2CC[C@@H](NC(=O)c3cccc4[nH]cnc34)CC2)c1 [Example 52, N-((1s,4s)-4-(2-(2′-((dimethylamino)methyl)-4′-hydroxybiphenyl-3-yloxy)-5-fluoronicotinamido)cyclohexyl)-1H-benzo[d]imidazole-4-carboxamide]"
7,0.0501 nM,"Cc1cc(C(=O)N[C@H]2CC[C@@H](NC(=O)c3cc(F)cnc3Oc3cccc(-c4ccc(CN(C)C)cc4CN4CCOCC4)c3)CC2)nn1C [Example 120, N-((1s,4s)-4-(1,5-dimethyl-1H-pyrazole-3-carboxamido)cyclohexyl)-2-(4′-((dimethylamino)methyl)-2′-(morpholinomethyl)biphenyl-3-yloxy)-5-fluoronicotinamide]"
8,0.251 nM,"COc1c(CN2C[C@@H](C)N[C@@H](C)C2)cccc1-c1cccc(Oc2ncc(F)cc2C(=O)N[C@H]2CC[C@@H](NC(=O)c3cc(C)n(C)n3)CC2)c1 [Example 106, N-((1s,4s)-4-(1,5-dimethyl-1H-pyrazole-3-carboxamido)cyclohexyl)-2-(3′-(((3S,5R)-3,5-dimethylpiperazin-1-yl)methyl)-2′-methoxybiphenyl-3-yloxy)-5-fluoronicotinamide]"
9,0.251 nM,"CCCN1CCN(Cc2ccc(-c3cccc(Oc4ncc(F)cc4C(=O)N[C@H]4CC[C@@H](NC(=O)c5cc(C)n(C)n5)CC4)c3)c(CN3CCOCC3)c2)CC1 [Example 181, N-((1s,4s)-4-(1,5-Dimethyl-1H-pyrazole-3-carboxamido)cyclohexyl)-5-fluoro-2-(2′-(morpholinomethyl)-4′-((4-propylpiperazin-1-yl)methyl)biphenyl-3-yloxy)nicotinamide]"
10,0.0794 nM,"Cc1cccc(C(=O)N[C@H]2CC[C@@H](NC(=O)c3cc(F)cnc3Oc3cccc(-c4ccc(O)c(CN5C[C@@H](C)N[C@@H](C)C5)c4)c3)CC2)n1 [Example 89, N-((1s,4s)-4-(2-(3′-(((3S,5R)-3,5-dimethylpiperazin-1-yl)methyl)-4′-hydroxybiphenyl-3-yloxy)-5-fluoronicotinamido)cyclohexyl)-6-methylpicolinamide]"
11,0.0794 nM,"Cc1cc(C(=O)N[C@H]2CC[C@@H](NC(=O)c3cc(F)cnc3Oc3cccc(-c4cccc(CCCN5CCN[C@@H](C)C5)c4)c3)CC2)nn1C [Example 139, N-((1s,4s)-4-(1,5-dimethyl-1H-pyrazole-3-carboxamido)cyclohexyl)-5-fluoro-2-(3′-(3-((S)-3-methylpiperazin-1-yl)propyl)biphenyl-3-yloxy)nicotinamide]"
12,0.0251 nM,"C[C@@H]1CN(Cc2ccc(-c3cccc(Oc4ncc(F)cc4C(=O)N[C@H]4CC[C@@H](NC(=O)c5cc6ccccn6n5)CC4)c3)cc2)C[C@H](C)N1 [Example 71, N-((1s,4s)-4-(2-(4′-(((3S,5R)-3,5-dimethylpiperazin-1-yl)methyl)biphenyl-3-yloxy)-5-fluoronicotinamido)cyclohexyl)pyrazolo[1,5-a]pyridine-2-carboxamide]"
13,0.0251 nM,"Cc1ccc(O)c(C(=O)N[C@H]2CC[C@@H](NC(=O)c3cc(F)cnc3Oc3cccc(-c4ccc(O)cc4CN4CCOCC4)c3)CC2)c1 [Example 28, 5-fluoro-2-(4′-hydroxy-2′-(morpholinomethyl)biphenyl-3-yloxy)-N-((1s,4s)-4-(2-hydroxy-5-methylbenzamido)cyclohexyl)nicotinamide]"
14,0.0316 nM,"Cc1csc(C(=O)N[C@H]2CC[C@@H](NC(=O)c3cc(F)cnc3Oc3cccc(-c4ccc(CN5C[C@@H](C)N[C@@H](C)C5)cc4CN4CCOC[C@@H]4C)c3)CC2)n1 [Example 194, N-((1s,4s)-4-(2-(4′-(((3S,5R)-3,5-dimethylpiperazin-1-yl)methyl)-2′-(((S)-3-methylmorpholino)methyl)biphenyl-3-yloxy)-5-fluoronicotinamido)cyclohexyl)-4-methylthiazole-2-carboxamide]"
15,0.0398 nM,"CC(=O)N1CCN(Cc2cc(O)ccc2-c2cccc(Oc3ncc(F)cc3C(=O)N[C@H]3CC[C@@H](NC(=O)c4csc(C)n4)CC3)c2)CC1 [Example 29, N-((1s,4s)-4-(2-(2′-((4-acetylpiperazin-1-yl)methyl)-4′-hydroxybiphenyl-3-yloxy)-5-fluoronicotinamido)cyclohexyl)-2-methylthiazole-4-carboxamide]"
16,0.0126 nM,"O=C(N[C@H]1CC[C@@H](NC(=O)c2cccc3cccnc23)CC1)c1cc(F)cnc1Oc1cccc(-c2ccc(CCCNCCCO)cc2)c1 [Example 161, N-((1s,4s)-4-(5-Fluoro-2-(4′-(3-(3-hydroxypropylamino)propyl)biphenyl-3-yloxy)nicotinamido)cyclohexyl)quinoline-8-carboxamide]"
17,0.0794 nM,"Cc1cc(C(=O)N[C@H]2CC[C@@H](NC(=O)c3cc(F)cnc3Oc3cccc(-c4cccc(CN5C[C@@H](C)N[C@@H](C)C5)c4O)c3)CC2)nn1C [Example 78, N-((1s,4s)-4-(1,5-dimethyl-1H-pyrazole-3-carboxamido)cyclohexyl)-2-(3′-(((3R,5S)-3,5-dimethylpiperazin-1-yl)methyl)-2′-hydroxybiphenyl-3-yloxy)-5-fluoronicotinamide]"
18,0.0631 nM,"C[C@@H]1CN(Cc2cc(-c3cccc(Oc4ncc(F)cc4C(=O)N[C@H]4CC[C@@H](NC(=O)c5cnn6cccnc56)CC4)c3)ccc2O)C[C@H](C)N1 [Example 125, N-((1s,4s)-4-(2-(3′-(((3S,5R)-3,5-dimethylpiperazin-1-yl)methyl)-4′-hydroxybiphenyl-3-yloxy)-5-fluoronicotinamido)cyclohexyl)pyrazolo[1,5-a]pyrimidine-3-carboxamide]"
19,0.0126 nM,"C[C@@H]1CN(Cc2ccc(-c3cccc(Oc4ncc(F)cc4C(=O)N[C@H]4CC[C@@H](NC(=O)c5cccc6[nH]cnc56)CC4)c3)c(CN3CCSCC3)c2)C[C@H](C)N1 [Example 202, N-((1s,4s)-4-(2-(4′-(((3S,5R)-3,5-dimethylpiperazin-1-yl)methyl)-2′-(thiomorpholinomethyl)biphenyl-3-yloxy)-5-fluoronicotinamido)cyclohexyl)-1H-benzo[d]imidazole-4-carboxamide]"
20,0.631 nM,"Cc1ncsc1C(=O)N[C@H]1CC[C@@H](NC(=O)c2cc(F)cnc2Oc2cccc(-c3ccc(O)cc3CN3CCOCC3)c2)CC1 [Example 33, N-((1s,4s)-4-(5-fluoro-2-(4′-hydroxy-2′-(morpholinomethyl)biphenyl-3-yloxy)nicotinamido)cyclohexyl)-4-methylthiazole-5-carboxamide]"
21,0.0251 nM,"Cc1cc(C)n2ncc(C(=O)N[C@H]3CC[C@@H](NC(=O)c4cc(F)cnc4Oc4cccc(-c5ccc(CN6C[C@@H](C)N[C@@H](C)C6)cc5CN5CCOC[C@@H]5C)c4)CC3)c2n1 [Example 196, N-((1s,4s)-4-(2-(4′-(((3S,5R)-3,5-dimethylpiperazin-1-yl)methyl)-2′-(((S)-3-methylmorpholino)methyl)biphenyl-3-yloxy)-5-fluoronicotinamido)cyclohexyl)-5,7-dimethylpyrazolo[1,5-a]pyrimidine-3-carboxamide]"
22,0.0158 nM,"Cc1csc(C(=O)N[C@H]2CC[C@@H](NC(=O)c3cc(F)cnc3Oc3cccc(-c4ccc(O)cc4CN4CCOCC4)c3)CC2)n1 [Example 45, N-((1s,4s)-4-(5-fluoro-2-(4′-hydroxy-2′-(morpholinomethyl)biphenyl-3-yloxy)nicotinamido)cyclohexyl)-4-methylthiazole-2-carboxamide]"
